Assay type: physicochemical
Method: The stability and robustness of the technetium-di(pyridine) complexes was assessed using challenges with free cysteine and histidine. Specifically, the experiments were performed using [^99mTc(CO)3(dipyridinemethylamine)]^+1.
[^99mTc(CO)3(H2O)3]^+ was heated with [{N,N-di(pyridyl-2-methyl)}N-butyl-phthalimide in 0.5 mL (1 mg/mL) of methanol at 100° C. for 60 minutes. […] The product eluted with methanol at 20.8 minutes. The HPLC analysis was performed using a Supelco C18 column, 25 cm×4.6 mm column (5 μm pore size), equipped with 2 cm guard using solvent A=0.05 M triethylammonium phosphate buffer pH 2.5 and solvent B=methanol. The method employed was a gradient 5-95% B, 1 mL/minute for 30 minutes. The gradient ramped from 5-95 from 3-20 minutes.

stability in challenges with free cysteine and histidine: stable | change in the components by HPLC on incubation with cysteine (aqueous solution, cysteine, 18 hours at 37° C. at pH 7.4): no significant change
Substance: [^99mTc(CO)3(dipyridinemethylamine)]^+1

— patent US8685369B2, “Technetium- and rhenium-bis (heteroaryl) complexes, and methods of use thereof” (priority 2004, dated 2014)
